In patent US20060194821A1, “Compounds inhibiting the aggregation of superoxide dismutase-1” (The Brigham and women's Hospital, Inc., priority 2005, published 2006):
“Also recorded” adds a separate entry of the source.

Tests used:
Format in all cases: biochemical
[1] = target: T1, A4V, a FALS-linked variant of SOD-1 (Homo sapiens, UniProt P00441, A5V); assay: A4V aggregation assay with EDTA (SOD-1 dimer loss by gel filtration); details: 100 μM compound, 50 μM protein
T1 construct: made in house
Protocol: SOD-1 dimer was purified on a Superdex 75™ (16/60) gel filtration column (Pharmacia) to produce starting material for each aggregation experiment. Metal analyses were carried by inductive coupled plasma mass-spectrometry (ICP-MS). WT and G93A were nearly fully metallated, and G85R and A4V were deficient in zinc and copper, respectively.
(§1) Aggregation assays for screening were prepared by adding a stock solution of compound to a protein solution (final concentrations: 100 μM compound, 50 μM protein). Following a 15 minute preincubation period at 37° C., 5 mM EDTA was added to initiate aggregation. Aliquots were periodically removed and analyzed for the amount of SOD-1 dimer present. This value correlated in all cases with the appearance of oligomers by gel filtration on a Superdex 200™ (3.2/30) gel filtration column (Pharmacia). All chromatography was performed in TBS, pH 7.4 (20 mM Tris, 150 mM NaCl) on a Waters 2690 Alliance HPLC and monitored at 220 and 276 nm. […] Assays in the absence of EDTA were carried as described previously (16). For Apo-A4V experiments, buffers were treated with CHELEX (except those containing EDTA) and experiments were performed in plastic tubes to avoid introduction of contaminating zinc into the Apo-protein.

A4V/V7F/V148F = target: T2, A4V/V7F/V148F (Homo sapiens, UniProt P00441, A5V/V149F/V8F); assay: Aggregation of A4V/V7F/V148F (putative binding site disturbed); details: binding site disturbed by V7F/V148F
T2 construct: made in house; host or cells: E. coli
Protocol: as §1
To investigate the effect of partially capping the cavity with hydrophobic moieties, residues V148 and V7, the sidechains of which protruded into the cavity, were mutated to phenylalanine. […] Filling cavities in protein structures with hydrophobic side chains often stabilizes the protein structure (30, 31), lysozyme being a classic example (32).
Three variants of SOD-1, in which the V7F and V148F mutations were introduced into WT, A4V and G93A, were cloned, expressed in E. coli and purified as described previously (15). Each protein was subjected to guanidine chloride (GdnCl) unfolding and fluorescence intensity (348 nm) was monitored at 25° C. WT enzyme was completely unfolded at 3.5 M GdnCl (Cm=3.2 M, where Cm is the midpoint of transition), while A4V was completely unfolded at 1.9 M GdnCl (Cm=1.51 M). […] G93A/V7F/V148F was slightly more resistant to denaturation than G93A. No significant effect of the two V→F mutations on the denaturation of WT (i.e., WT vs. V7F/V148F) could be measured. The V→F mutations stabilized both A4V and G93A against EDTA induced aggregation. […] Similarly, G93A/V7F/V148F aggregated slightly more slowly than G93A.

G93A = target: T3, G93A (Homo sapiens, UniProt P00441, G94A); assay: EDTA-induced aggregation of G93A
T3 construct: made in house
Protocol: as §1

G85R = target: T4, G85R (Homo sapiens, UniProt P00441, G86R); assay: EDTA-induced aggregation of G85R
T4 construct: made in house
Protocol: as §1

A4V = target: T5, A4V (Homo sapiens, UniProt P00441, A5V); assay: Guanidinium chloride unfolding of A4V (fluorescence); details: 5 μM protein, fluorescence 348 nm
T5 construct: made in house
Text: Equilibrium unfolding transition, as a function of GdnCl concentration, was monitored by fluorescence spectroscopy. The fluorescence measurements were done on a Hitachi f-4500 spectrofluorometer in a 1-cm cell connected to a circulation water bath. The excitation and emission wavelengths were fixed at 278 and 348 nm, respectively, after making appropriate corrections for buffer and GdnCl. The slit width was 5 nm for both monochromators. Each measurement was an average of five readings. Protein concentration used for fluorescence experiments was 5 μM. The data were analyzed directly for a two-state (N→U) transition as follows: the raw data for the GdnCl-induced denaturation studies were converted to fractions of the protein in the unfolded state (fu) as a function of GdnCl concentration using the equation: fu=Y0−(Yf+mf[GdnCl.])/(Yu+mu[GdnCl.])−(Yf+mf[GdnCl.]) where Y0 is the observed spectroscopic property, Yf and mf are the […] of the folded state baseline and Yu and mu represent the respective values of the unfolded baseline. The folded fraction was calculated as (fn=1−fu) and the equilibrium constant was determined by Keq=fu/fn. The free energy of unfolding was determined using the equation ΔG=−RT ln(Keq) where T is the temperature in Kelvin and R is the universal gas constant (1.987 cal mol−1 K−1).

SOD = assay: Testing of structural analogs for inhibition of SOD aggregation; details: Example 2, compounds of FIG. 2
Protocol: as §1
A structural analysis was performed on the 15 compounds found to be active in the assays described in Example 1 (see FIG. 1). […] Although most of the compounds tested were purchased commercially, two (1,2-di-[6-Mercapto-2H-[1,2,4]triazine-3,5-dione]ethane; and di-{5-[1H-pyrimidine-2,4-dione]methyl}thioether) were synthesized as described in Example 3.

T3 sequence (P00441 2-154 G94A limits assumed): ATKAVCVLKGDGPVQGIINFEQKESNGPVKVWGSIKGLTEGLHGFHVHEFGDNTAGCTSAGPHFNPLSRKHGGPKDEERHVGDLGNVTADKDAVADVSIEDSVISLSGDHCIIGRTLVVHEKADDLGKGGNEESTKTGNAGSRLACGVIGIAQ
T2 sequence (P00441 2-154 A5V/V8F/V149F limits assumed): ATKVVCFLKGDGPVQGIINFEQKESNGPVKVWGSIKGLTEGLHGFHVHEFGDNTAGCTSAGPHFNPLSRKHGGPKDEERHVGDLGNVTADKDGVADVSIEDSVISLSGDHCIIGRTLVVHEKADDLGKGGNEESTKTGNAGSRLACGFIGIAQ
T1 sequence (P00441 2-154 A5V limits assumed): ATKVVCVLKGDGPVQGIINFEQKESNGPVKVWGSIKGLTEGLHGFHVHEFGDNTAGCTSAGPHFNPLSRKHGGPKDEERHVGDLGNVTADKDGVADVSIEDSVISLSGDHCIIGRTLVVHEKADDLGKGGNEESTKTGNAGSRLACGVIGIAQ
T5 sequence (P00441 2-154 A5V limits assumed): as above
T4 sequence (P00441 2-154 G86R limits assumed): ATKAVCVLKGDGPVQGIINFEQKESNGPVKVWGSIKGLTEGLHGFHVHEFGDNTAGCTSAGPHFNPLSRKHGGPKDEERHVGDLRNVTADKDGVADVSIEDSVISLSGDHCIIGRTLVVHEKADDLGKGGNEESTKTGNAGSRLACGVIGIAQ

change in the aggregation rate of A4V/V7F/V148F (A4V/V7F/V148F)	inhibition of G93A aggregation (G93A)	inhibition of G85R aggregation (G85R)	stabilization of A4V against GdnCl induced unfolding (expressed as ΔG) (A4V)	Compound	inhibition of A4V aggregation (in words) [1]	inhibition of SOD aggregation by structural analogs (SOD)
no appreciable change	among the best inhibitors	among the best inhibitors	stabilized A4V nearly to WT levels	Oc1ccc(Br)cc1/C=N/c1ccc(F)cc1 [Compound 4, 4-bromo-2-{(E)-[(4-fluorophenyl)imino]methyl}phenol]	most potent A4V aggregation inhibitors; also recorded: among the most potent aggregation inhibitors	
				O=c1[nH]cc(CSCc2c[nH]c(=O)[nH]c2=O)c(=O)[nH]1 [di-{5-[1H-pyrimidine-2,4-dione]methyl}thioether]		most active
no appreciable change	among the best inhibitors	among the best inhibitors	stabilized A4V nearly to WT levels	O=c1[nH]nc(SCc2ccc(Cl)cc2)c(=O)[nH]1 [Compound 3, 6-[(4-chlorobenzyl)thio]1,2,4-triazine-3,5(2H,4H)-dione]	most potent A4V aggregation inhibitors; also recorded: among the most potent aggregation inhibitors	
				O=c1[nH]cc(CSc2n[nH]c(=O)[nH]c2=O)c(=O)[nH]1 [6-{[(2,4-dioxo-1,2,3,4-tetrahydropyrimidin-5-yl)methyl]thio}-1,2,4-triazine-3,5(2H,4H)-dione]		most active
				O=c1[nH]c(=O)n(CCn2nc(S)c(=O)[nH]c2=O)nc1S [1,2-di-[6-Mercapto-2H-[1,2,4]triazine-3,5-dione]ethane]		most active
no appreciable change	among the best inhibitors	among the best inhibitors	stabilized A4V nearly to WT levels	O=c1[nH]nc(SCc2ccc(F)cc2)c(=O)[nH]1 [Compound 7, 6-[(4-fluorobenzyl)thio]-1,2,4-triazine-3,5(2H,4H)-dione]	most potent A4V aggregation inhibitors; also recorded: among the most potent aggregation inhibitors	

Compound	change in the aggregation rate of A4V/V7F/V148F (A4V/V7F/V148F)	inhibition of G93A aggregation (G93A)	inhibition of G85R aggregation (G85R)	stabilization of A4V against GdnCl induced unfolding (expressed as ΔG) (A4V)	inhibition of A4V aggregation (in words) [1]	inhibition of SOD aggregation by structural analogs (SOD)
O=c1cc(Nc2ccc(Cl)cc2)[nH]c(=O)[nH]1 [Compound 2, 6-[(4-chlorophenyl)amino]pyrimidine-2,4(1H,4H)-dione]	no appreciable change	among the best inhibitors	among the best inhibitors	stabilized A4V nearly to WT levels; also recorded: stabilizes the A4V dimer to an extent comparable to the difference in stability between the invariably lethal A4V and WT SOD-1	most potent A4V aggregation inhibitors; also recorded: among the most potent aggregation inhibitors	
